Where a name gives a salt, the structure may show the parent alone. Read-outs that look alike come from different tables or passages of the source.
How the values were obtained:
[1] = CNS disposition of ondansetron (brain, spinal cord, CSF) after IV co-administration with tariquidar; format: in vivo, rat; settings: ondansetron 10 mg/kg + tariquidar 7.5 mg/kg IV
Method: (§1) Animals previously used in the plasma pharmacokinetics study were included following a two-week washout period; and additional animals were added to achieve n = 4–6 per time point. […] Groups of rats were sacrificed at 0.16, 0.25, 0.5, 1, 1.5, 2, and 2.5 h under isoflurane anesthesia, and terminal samples were collected including plasma, brain, spinal cord, and cerebrospinal fluid from cisterna magna (CSF) and stored at −20°C.
Agilent 1260 Infinity HPLC equipped with a photodiode array detector was used (Agilent, Santa Clara, CA, USA) in this work. […] Inter-day and intra-day accuracy and precision of the assay were within 15%.
(§2) A standard noncompartmental analysis was performed using average plasma concentration–time data (samples obtained from sequential and terminal experiments were combined) in Phoenix WinNonlin version 8.1 (Certara, Princeton, NJ). For plasma, the area under the plasma concentration–time curve from time zero to infinity (AUCplasma), systemic clearance (CL), volume of distribution at steady state (Vd,ss), half-life (t1/2,plasma), and mean residence time (MRT) were calculated. For brain, spinal cord, and CSF the area under the tissue concentration–time curve (AUCtissue) and half-life in tissue (t1/2,tissue) were reported.
However, since the AUC values were based on terminal samples, no statistical comparison among the groups could be performed.

[2] = parameters: method as in PMID 15275776; settings: cited from earlier work
[3] = ondansetron alone 10 mg/kg IV, cited from earlier work
[4] = Semi-physiological pharmacokinetic model of ondansetron systemic and CNS disposition (estimated parameters); format: in vivo, rat; settings: for k12 Distribution rate constant to peripheral distribution compartment / k13 Distribution rate constant to brain compartment / k14 Distribution rate constant to spinal cord compartment / k15 Distribution rate constant to CSF compartment / k21 Distribution rate constant from peripheral distribution compartment / k31 Distribution rate constant from brain compartment / k35=45 Rate constant for brain/spinal cord and CSF exchange / k41 Distribution rate constant from spinal cord compartment / k51 Distribution rate constant from CSF compartment / k53=54 Rate constant for brain/spinal cord and CSF exchange: model estimate shared across WT, KO, OT; for kPgp,TRQ Rate constant for Pgp-mediated efflux from the CNS for OT animals / kPgp Rate constant for Pgp-mediated efflux from the CNS: model estimate; for kPgp,TRQ Rate constant for Pgp-mediated efflux from the CNS for OT animals: OT group (with tariquidar); for kPgp Rate constant for Pgp-mediated efflux from the CNS: wild type animals, ondansetron alone; for Vd / k el: rat, plasma, brain, spinal cord, CSF, iv, 10 mg/kg
Method: Interconnectivity of CNS compartments followed animal physiology (A3 - brain, A4 – spinal cord, A5 - CSF), and previously published CNS model were consulted. The volume of the brain (Vbrain) was fixed to a previously determined value of 1.8 mL which was also in agreement with the brain weight reported before. The volume of the CSF compartment (VCSF) was fixed to 0.25 mL [25]. The volume of the spinal cord (Vspinal) was measured and reported in our previous study and was fixed to 0.6 mL. First order rate constant were used to describe a bidirectional passive permeability between the central disposition compartment (with the volume V1) and various CNS compartments (k13, k31, k14, k41, k15, k51) and distributional terms between CNS compartments (k35, k53, k45, k54). Pgp efflux at the BBB was described using a first-order term (kpgp) and was included for wild type animals only; the term was set to zero in KO rats. The following differential Eqs. (1–5) were used: 1 dA1/dt=k21·A2+k31·A3+k41·A4+k51·A5-kel+k12+k13+k14+k15·A1+kPgp·A3+kPgp·A4 2 dA2/dt=k12·A1-k21·A2 3 dA3/dt=k13·A1+k53·A5-k31+k35+kPgp·A3 4 dA4/dt=k14·A1+k54·A5-k41+k45+kPgp·A4 5 dA5/dt=k15·A1+k35·A3+k45·A4-k51+k53+k54·A5
(§3) The whole dataset included mean ondansetron profiles of OT-M and OT-F in plasma, brain, spinal cord, and CSF obtained in this study and previous data for male and female WT and KO animals. […] Several functions to describe tariquidar-induced Pgp inhibition were considered. […] The final model included a separate term for describing Pgp function in OT groups (kPgp,TRQ). Other parameters were shared across WT, KO, and OT models. All model parameters were estimated. A separate set of parameters was estimated for female cohorts (WT-F, KO-F, OT-F) using the same final model structure.
R (version 3.31) and Rstudio (version 1.2.5001, Boston, MA, USA) with Ubiquity package were used for model development as described before.

[5] = Noncompartmental plasma pharmacokinetics of ondansetron after IV co-administration with tariquidar; format: in vivo, rat; settings: ondansetron 10 mg/kg with tariquidar, wild type rats vs wild-type (and Pgp KO) rats
Method: The study was conducted under the protocol approved by the Institutional Animal Care and Use Committee at Rutgers University. Wild-type Sprague Dawley rats (males of 10–12 weeks, weighing 300–350 g and females of 12–14 weeks, weighing 250–280 g) were purchased from Horizon Discovery (previously Sage Labs Inc., Boyertown, PA). Animals were housed in a vivarium under controlled temperatures and 12/12 h dark/light cycle with free access to food and water. Right jugular vein was cannulated to allow for accurate intravenous dosing using polyethylene tubing (PE-50, Braintree Scientific, Braintree, MA). The surgery was performed under light isoflurane anesthesia, and after that animals were allowed to recover for 24 h. Intradermal bupivacaine and subcutaneous meloxicam were provided as analgesia. […]
as §2, with “For brain, spinal cord, and CSF the area under the tissue concentration–time curve (AUCtissue) and half-life in tissue (t1/2,tissue) were reported.” left out

[6] = format: in vivo
Pgp [7] = settings: cited from earlier work
Pgp [8] = settings: 30 min after intravenous injection of tariquidar doses above 6 mg/kg; cited from earlier work
Pgp [9] = test: Inhibition of Pgp efflux at the CNS by tariquidar in vivo; parameters: species or system rat; settings: tariquidar 7.5 mg/kg IV, 30 min before ondansetron 10 mg/kg IV, wild type rats
Method: as §1, §3

[10] = Tariquidar concentrations in plasma, brain, spinal cord and CSF after IV administration; format: in vivo, rat; settings: 7.5 mg/kg IV; for half-life: Sprague Dawley, rat, plasma
Method: as §1
Agilent 1260 Infinity HPLC equipped with a photodiode array detector was used (Agilent, Santa Clara, CA, USA) in this work.
Data analysis was performed separately for male (OT-M) and female (OT-F) rat groups.

Pgp [11] = settings: read-out: affinity to Pgp (KD); cited from earlier work

For Cc1nccn1CC1CCc2c(c3ccccc3n2C)C1=O (stereo not shown) [Ondansetron, Ondansetron hydrochloride], the “AUCtissue,0-∞” value ([1]; Brain, OT-F: female rats) was 19.16 h⋅μg⋅mL^−1, the “AUCtissue,0-∞” value ([1]; Brain, OT-M: male rats) was 22.0 h⋅μg⋅mL^−1 and the “AUCtissue,0-∞” value ([1]; CSF, OT-F: female rats) was 1.49 h⋅μg⋅mL^−1. For the same compound, the “AUCtissue,0-∞” value ([1]; CSF, OT-M: male rats) was 1.37 h⋅μg⋅mL^−1, the “AUCtissue,0-∞” value ([1]; Spinal Cord, OT-F: female rats) was 15.6 h⋅μg⋅mL^−1 and the “AUCtissue,0-∞” value ([1]; Spinal Cord, OT-M: male rats) was 15.0 h⋅μg⋅mL^−1. The “effect of intrathecal administration in a neuropathic animal model” value [2] was “dose-dependent antinociceptive effect”, the KP_KO ([3]; Brain, female Pgp knockout rats) was 3.04 and the KP_WT ([3]; Brain, female wild type rats) was 0.71. The KP_KO ([3]; Brain, male Pgp knockout rats) was 2.52, the KP_WT ([3]; Brain, male wild type rats) was 0.46 and the KP_KO ([3]; CSF, female Pgp knockout rats) was 0.22. For the same compound, the KP_WT ([3]; CSF, female wild type rats) was 0.11, the KP_KO ([3]; CSF, male Pgp knockout rats) was 0.19 and the KP_WT ([3]; CSF, male wild type rats) was 0.06. For the same compound, the KP_KO ([3]; Spinal Cord, female Pgp knockout rats) was 1.34, the KP_WT ([3]; Spinal Cord, female wild type rats) was 0.47 and the KP_KO ([3]; Spinal Cord, male Pgp knockout rats) was 1.78. The KP_WT ([3]; Spinal Cord, male wild type rats) was 0.39, the “k12 Distribution rate constant to peripheral distribution compartment” value ([4]; Female) was 4.37 h⁻¹ and the “k13 Distribution rate constant to brain compartment” value ([4]; Female) was 13.0 h⁻¹. The “k14 Distribution rate constant to spinal cord compartment” value ([4]; Female) was 3.60 h⁻¹, the “k15 Distribution rate constant to CSF compartment” value ([4]; Female) was 0.518 h⁻¹ and the “k21 Distribution rate constant from peripheral distribution compartment” value ([4]; Female) was 2.32 h⁻¹. For the same compound, the “k31 Distribution rate constant from brain compartment” value ([4]; Female) was 25.2 h⁻¹, the “k35=45 Rate constant for brain/spinal cord and CSF exchange” value ([4]; Female) was 0.914 h⁻¹ and the “k41 Distribution rate constant from spinal cord compartment” value ([4]; Female) was 31.5 h⁻¹. The “k51 Distribution rate constant from CSF compartment” value ([4]; Female) was 47.3 h⁻¹, the “k53=54 Rate constant for brain/spinal cord and CSF exchange” value ([4]; Female) was 79.9 h⁻¹ and the “kPgp,TRQ Rate constant for Pgp-mediated efflux from the CNS for OT animals” value ([4]; Female) was 0.0001 h⁻¹. The “kPgp Rate constant for Pgp-mediated efflux from the CNS” value ([4]; Female) was 101 h⁻¹, the “k12 Distribution rate constant to peripheral distribution compartment” value ([4]; Male) was 2.14 h⁻¹ and the “k13 Distribution rate constant to brain compartment” value ([4]; Male) was 17.6 h⁻¹. For the same compound, the “k14 Distribution rate constant to spinal cord compartment” value ([4]; Male) was 9.37 h⁻¹, the “k15 Distribution rate constant to CSF compartment” value ([4]; Male) was 0.081 h⁻¹ and the “k21 Distribution rate constant from peripheral distribution compartment” value ([4]; Male) was 2.62 h⁻¹. The “k31 Distribution rate constant from brain compartment” value ([4]; Male) was 39.6 h⁻¹, the “k35=45 Rate constant for brain/spinal cord and CSF exchange” value ([4]; Male) was 0.928 h⁻¹ and the “k41 Distribution rate constant from spinal cord compartment” value ([4]; Male) was 71.0 h⁻¹. For the same compound, the “k51 Distribution rate constant from CSF compartment” value ([4]; Male) was 6.84 h⁻¹, the “k53=54 Rate constant for brain/spinal cord and CSF exchange” value ([4]; Male) was 66.6 h⁻¹ and the “kPgp,TRQ Rate constant for Pgp-mediated efflux from the CNS for OT animals” value ([4]; Male) was 0.002 h⁻¹. For the same compound, the “kPgp Rate constant for Pgp-mediated efflux from the CNS” value ([4]; Male) was 81.9 h⁻¹, the Vd ([4]; female, Sprague Dawley, with tariquidar (co-administered), read-out: V1,TRQ Central volume of distribution) was 0.0113 L and the k el ([4]; female, Sprague Dawley, with tariquidar (co-administered), read-out: kel,TRQ Systemic elimination rate constant for OT animals (converted)) was 0.000839 s⁻¹. For the same compound, the Vd ([4]; female, read-out: V1 Central volume of distribution) was 0.0133 L, the k el ([4]; female, read-out: kel Systemic elimination rate constant (converted)) was 0.00141 s⁻¹ and the Vd ([4]; male, Sprague Dawley, with tariquidar (co-administered), read-out: V1,TRQ Central volume of distribution) was 0.0127 L. The k el ([4]; male, Sprague Dawley, with tariquidar (co-administered), read-out: kel,TRQ Systemic elimination rate constant for OT animals (converted)) was 0.000939 s⁻¹, the Vd ([4]; male, read-out: V1 Central volume of distribution) was 0.0175 L and the k el ([4]; male, read-out: kel Systemic elimination rate constant (converted)) was 0.001 s⁻¹. The “plasma ondansetron concentration in comparison to ondansetron administered alone” value [5] was “almost doubled”.

For COc1cc2c(cc1OC)CN(CCc1ccc(NC(=O)c3cc(OC)c(OC)cc3NC(=O)c3cnc4ccccc4c3)cc1)CC2 [Tariquidar], the “toxicity in rats immediately after ondansetron injection” value ([6]; tariquidar 15 mg/kg 30 min before ondansetron 10 mg/kg) is given as “toxicity”, the “toxicity in rats after ondansetron injection” value ([6]; tariquidar dose decreased to 7.5 mg/kg, ondansetron 10 mg/kg) is given as “eliminating this toxicity” and the “inhibitory activity (IC50)” value (Pgp [7]) is given as “nM-range”. The “inhibition of Pgp” value (Pgp [8]) was “complete inhibition”, the “inhibition of Pgp efflux of ondansetron in the brain and spinal cord” value (Pgp [9]) was “almost complete inhibition” and the half-life ([10]; female rats) was 2.2 h. The half-life ([10]; male rats) was 3.1 h, the “Tariquidar detection in CSF samples” value ([10]; rats, limit of detection 50 ng/mL for CSF) was “could not be detected” and the Kd (Pgp [11]) was 5.1 nM.
